# Test results as given in US20010044404A1, “Cleaning process and composition” (3M Innovative Properties Company, priority 1995, published 2001).
# Experiments:
# [1] = Stability in the presence of base: aqueous NaOAc, fluoride ion measurement; format: physicochemical; conditions: 10 g with 10 g 0.1M NaOAc, 110° C., 16 hours
# Description: To assess hydrolytic stability, a ten gram sample of alkoxy-substituted perfluorocompound was combined with 10 g of 0.1M NaOAc and sealed in a 2.54 cm (internal diameter) by 9.84 cm Monel™ 400 alloy (66% nickel, 31.5% copper, and 1.2% iron and several minor components) tube (available from Paar Instrument Co. of Moline, Ill. as Part Number 4713cm). The tube was heated at 110° C. in a forced air convection oven for 16 hours. After cooling to room temperature, a 1 mL sample of the tube contents was diluted with 1 mL of total ionic strength adjustment buffer (TISAB, available from Orion Research, Inc., a mixture of 1,2-cyclohexylene dinitrilotetraacetic acid, deionized water, sodium acetate, sodium chloride, and acetic acid). The concentration of fluoride ion (resulting from any reaction of the perfluorocompound with the aqueous NaOAc) was measured using an Orion Model 720A Coulombmeter with a F-specific electrode which had been previously calibrated using 0.5 and 500 ppm F^− solutions. Based on the measured fluoride ion concentration, the rate at which HF had been generated by reaction of the aqueous NaOAc with the perfluorocompound was calculated.
# [2] = Flash point testing ASTM D3278-89; format: physicochemical
# Description: The alkoxy-substituted perfluorocompounds C4F9OCH3, C4F9OC2H5, and c-C6F11OCH3 were tested for flash point by the standard method defined by ASTM D3278-89.
# [3] = Mineral oil removal from aluminum coupon, sonication in solvent; conditions: sonicated 1 minute
# Description: In the following Examples and Comparative Examples, the cleaning ability of the alkoxy-substituted perfluorocompounds used in the cleaning process of the invention was further evaluated. A 1.28 cm×1.28 cm×0.225 cm wire-wrapped, aluminum coupon was coated with white heavy mineral oil (available from Aldrich Chemical) by immersing the coupon in an oil-filled beaker. The initial amount of the oil on the coupon was determined by weighing it on an analytical balance to the nearest 0.1 mg. The coupon was immersed in a container of solvent and sonicated for 1 minute at the indicated temperature (see Table 3 below for the solvents and temperatures used). The coupon was then weighed again, and the results were recorded in Table 3 as percent oil removal.
# [4] = Ability to dissolve halogenated oils (miscibility); format: physicochemical; conditions: room temperature
# Description: The ability of alkoxy-substituted perfluorocompounds to dissolve several halogenated oils was determined by adding a measured amount of oil to alkoxy-substituted perfluorocompound until the resulting mixture became turbid or phase-split. […] The results (shown in Table 12) indicate that alkoxy-substituted perfluorocompounds have very high ability to dissolve halogenated oils. Thus, the perfluorocompounds can be used as carrier solvents for halogenated oils in the deposition of coatings of such oils on substrate surfaces.
# [5] = Fluorinated oil removal from aluminum coupon; conditions: Krytox 157FSM, room temperature
# Description: Using essentially the same procedure as that described in Examples 8-10, the ability of the alkoxy-substituted perfluorocompounds to remove a fluorinated oil was evaluated. As in the previous Examples, a coupon was immersed in Krytox™ 157FSM perfluoropolyether oil having carboxylic acid end groups (available from DuPont), and the percent oil remaining after immersion in the solvent (at room temperature) was determined.
# [6] = Rinse agent in co-solvent cleaning of solder flux; conditions: solvating agent 1 minute at about 55° C., then 30 seconds in boiling solvent
# Description: The ability of alkoxy-substituted perfluorocompounds to function as a rinse agent in a co-solvent cleaning process was evaluated. The above-described aluminum coupon was coated with solder flux (available from Alpha Metals as Alpha 611 rosin, mildly activated flux) by immersing the coupon into a flux-filled beaker. The flux-coated coupon was then dried using a forced air convection drier. The initial amount of the flux on the coupon was determined by weighing it on an analytical balance to the nearest 0.1 mg. The coupon was immersed in a container of a mixed solvating agent comprising approximately 50% methyl decanoate and 50% dipropylene glycol di-n-butyl ether and was sonicated for 1 minute at approximately 55° C. The coupon was then immersed for 30 seconds into alkoxy-substituted perfluorocompound which had been heated to its boiling point. The coupon was weighed again, and the results were recorded in Table 5 below as percent oil removed from the coupon.
# [7] = Perfluoropolyether oil removal in solvent vapor; conditions: Brayco 815Z; vapor over boiling liquid, 60 seconds
# Description: The above-described aluminum coupon was dipped into Brayco 815Z perfluoropolyether oil (available from Castrol Inc., molecular weight of about 10,000) and then immersed in alkoxy-substituted perfluorocompound vapor (over the boiling liquid) for 60 seconds. The percent oil removal was determined in the above-described manner.
# [8] = Paraffinic oil removal: solvating agent, then rinse in boiling solvent; conditions: methyl caproate/dipropylene glycol di-n-butyl ether 30 seconds, boiling rinse 30 seconds
# Description: The above-described test coupon was dipped into a paraffinic oil comprising a mixture of linear and branched hydrocarbons (DuoSeal Pump Oil, available from Sargent Welch), was immersed in mixed solvating agent comprising approximately 50% methyl caproate and 50% dipropylene glycol di-n-butyl ether for 30 seconds, and was then rinsed in boiling alkoxy-substituted perfluorocompound for 30 seconds. The percent oil removal was determined in the above-described manner.
# [9] = Pump oil removal in vapor of boiling n-C6H14/perfluorocompound mixture; conditions: vapor of boiling 40 volume % n-C6H14, 60 volume % fluorinated component; 60 seconds
# Description: (§1) The above-described test coupon was dipped into DuoSeal Pump Oil (available from Sargent-Welch) and was then immersed in the vapor of a boiling mixture of 40 volume % n-C6H14 and 60 volume % alkoxy-substituted perfluorocompound (a cleaning composition of the invention), for 60 seconds. The percent oil removal was determined in the above-described manner.
# [10] = Pump oil removal with boiling mixed terpenes/perfluorocompound mixture; conditions: boiling mixture 40 volume % mixed terpenes, 60 volume % fluorinated component
# Description: The above-described test coupon was dipped into DuoSeal Pump Oil (available from Sargent-Welch), was immersed in a boiling mixture of 40 volume % of a solvating agent comprising mixed terpenes having a boiling range of 243-274° C. and 60 volume % of alkoxy-substituted perfluorocompound (a cleaning composition of the invention), was cooled for 60 seconds, and was then immersed in mixture vapor for 30 seconds. The percent oil removal was determined in the above-described manner.
# [11] = Pump oil removal with n-C6H14/perfluorocompound mixture at room temperature, ultrasonic; conditions: 40 volume % n-C6H14, 60 volume % fluorinated component, 60 seconds
# Description: as §1, with “in” for “in the vapor of”, “a” for “a boiling”, “invention)” for “invention),”, “seconds at room temperature with ultrasonic agitation.” for “seconds.”
# [12] = Mineral oil removal with boiling methyl decanoate/perfluorocompound mixture; conditions: boiling mixture 40 volume % methyl decanoate, 60 volume % perfluorocompound
# Description: The above-described test coupon was dipped in white heavy mineral oil (available from Aldrich Chemical), was immersed in a boiling single-phase mixture of 40 volume % of a solvating agent comprising essentially methyl decanoate and 60 volume % of alkoxy-substituted perfluorocompound (a cleaning composition of the invention) for 60 seconds, was cooled for 60 seconds, and was then immersed in mixture vapor for 30 seconds. The percent oil removal was determined in the above-described manner.
# [13] = Open cup flash point ASTM D1310-86; format: physicochemical
# Description: (§2) Various properties were measured for C4F9OCH3, CHClFCF2OCH3, and blends of each ether compound with cosolvent, trans-1,2-dichloroethylene (hereinafter, t-DCE) or n-butyl bromide, at various weight ratios.
# [14] = Solvency properties: largest normal hydrocarbon alkane soluble at 50 percent by volume
# Description: A number of potential solvents were tested for their ability to dissolve hydrocarbons of increasing molecular weight according to the procedure described in U.S. Pat. No. 5,275,669 (Van Der Puy et al.), the description of which is incorporated herein by reference. The data shown in Table 1 were obtained by determining the largest normal hydrocarbon alkane which was soluble in a particular solvent at a level of 50 percent by volume. The numbers in the Table correspond with the carbon number of the largest alkane, e.g., “8” refers to octane. Measurements were made from room temperature up to the boiling point of the solvent. For comparative purposes, hydrofluorocarbons (HFCs) and perfluorocarbons (PFCs) were also tested using this method.
# Using essentially the above-described method, the solvency properties of other alkoxy-substituted perfluorocompounds were tested at room temperature.
# [15] = Stability in the presence of acid (96% sulfuric acid, GLC); format: physicochemical; conditions: neat ether; sulfuric acid as in Stability in the Presence of Acid section
# Description: To assess hydrolytic stability under acidic conditions, C4F9OCH3 (15 g, 0.06 mole) was combined with sulfuric acid (10 g of 96% by weight, 0.097 mole) in a 50 mL flask containing a stir bar and fitted with a reflux condenser. The resulting mixture was stirred for 16 hours at room temperature, and then the resulting upper fluorochemical phase was separated from the resulting lower sulfuric acid phase. […] Chem. 49, 4007 (1984), which states that “[f]luorine atoms attached to carbon which also bears an alkyl ether group are known to be labile to electrophilic reagents. They are readily hydrolyzed in concentrated sulfuric acid, thus providing a route to some esters of fluoroacids.”
# [16] = Closed cup flash point ASTM D3278-96; format: physicochemical
# Description: as §2
# [17] = Brayco 815Z Perfluoropolyether (MW about 10,000)
# [18] = Chlorotrifluoroethylene Fluid (Inland 41 Vacuum Pump Oil)
# [19] = Fomblin AM-2001 Functionalized Perfluoropolyether
# [20] = 20 weight % ether, 80 % n-butyl bromide
# [21] = 30 weight % ether, 70 % n-butyl bromide
# [22] = 50 weight % ether, 50 % n-butyl bromide
# [23] = 80 weight % ether, 20 % n-butyl bromide
compound,measurement,setting,value
COC1(F)C(F)(F)C(F)(F)C(F)(F)C(F)(F)C1(F)F [c-C6F11OCH3],HF Generation Rate,[1],0.33 µg/g/h
same,Flash point,[2],no flash point
same,percent oil removal,[3]; 23 ° C.,74.4%
same,percent oil removal,[3]; 50 ° C.,96.5%
same,percent oil removal,[3]; 60 ° C.,99.8%
same,Miscibility with solute,[4]; [17],Miscible (greater than or equal to 50 percent by volume solubility at room temperature)
same,Miscibility with solute,[4]; [18],Miscible (greater than or equal to 50 percent by volume solubility at room temperature)
same,Miscibility with solute,[4]; [19],Miscible (greater than or equal to 50 percent by volume solubility at room temperature)
same,% Removed,[5],96.5%
same,% Removed,[6],100.0%
FC(C(F)C(F)(F)C(F)(F)F)C(F)(F)F (centres unmarked) [reference compound],HF Generation Rate,[1],42.9 µg/g/h
"FC(F)C(F)(F)C(F)(F)C(F)(F)C(F)(F)C(F)(F)F [Example C6F13H, C6F13H, reference compound]",percent oil removal,[3]; 23 ° C.,71.7%
same,percent oil removal,[3]; 50 ° C.,86.8%
same,% Removed,[6],91.2%
"FC(F)(F)C(F)(F)C(F)(F)C(F)(F)C(F)(F)C(F)(F)F [Example C6F14, C6F14, reference compound]",Percent Soil Removed,[7],92.9%
same,Percent Soil Removed,[8],89.2%
same,Percent Soil Removed,[9],73.8%
same,Percent Soil Removed,[10],75.7%
same,percent oil removal,[3]; 23 ° C.,54.9%
same,percent oil removal,[3]; 50 ° C.,67.6%
same,Percent Soil Removed,[11],88.5%
same,% Removed,[6],51.9%
C4F9OC2H5 [Example C4F9OC2H5],HF Generation Rate,[1],0.22 µg/g/h
same,Flash point,[2],no flash point
same,Percent Soil Removed,[7],93.3%
same,Percent Soil Removed,[8],100.0%
same,Percent Soil Removed,[9],97.1%
same,Percent Soil Removed,[12],94.28%
same,Percent Soil Removed,[10],99.4%
same,percent oil removal,[3]; 23 ° C.,56.0%
same,percent oil removal,[3]; 50 ° C.,99.2%
same,percent oil removal,[3]; 60 ° C.,100.0%
same,Miscibility with solute,[4]; [17],Miscible (greater than or equal to 50 percent by volume solubility at room temperature)
same,Miscibility with solute,[4]; [18],Miscible (greater than or equal to 50 percent by volume solubility at room temperature)
same,Miscibility with solute,[4]; [19],Miscible (greater than or equal to 50 percent by volume solubility at room temperature)
same,% Removed,[5],99.3%
same,Percent Soil Removed,[11],99.0%
same,% Removed,[6],100.0%
"COC(F)(F)C(F)Cl (centres unmarked) [CHClFCF2OCH3, 2-chloro-1,1,2-trifluoroethyl methyl ether, reference compound]",Open Cup Flash Point (ASTM D1310-86),"[13]; 20 weight % ether, 80 % t-DCE",80 (27) ° F. (° C.)
same,Open Cup Flash Point (ASTM D1310-86),"[13]; 50 weight % ether, 50 % t-DCE",80 (27) ° F. (° C.)
same,Open Cup Flash Point (ASTM D1310-86),"[13]; 80 weight % ether, 20 % t-DCE",85 (29) ° F. (° C.)
same,Open Cup Flash Point (ASTM D1310-86),"[13]; 100 weight % ether, 0 % t-DCE",76 (24) ° F. (° C.)
same,Largest Carbon Number of Longest Hydrocarbon Alkane to Dissolve,[14]; [20],21
same,Largest Carbon Number of Longest Hydrocarbon Alkane to Dissolve,"[14]; 20 weight % ether, 80 % t-DCE",27
same,Largest Carbon Number of Longest Hydrocarbon Alkane to Dissolve,[14]; [21],21
same,Largest Carbon Number of Longest Hydrocarbon Alkane to Dissolve,[14]; [22],20
same,Largest Carbon Number of Longest Hydrocarbon Alkane to Dissolve,"[14]; 50 weight % ether, 50 % t-DCE",21
same,Largest Carbon Number of Longest Hydrocarbon Alkane to Dissolve,[14]; [23],19
same,Largest Carbon Number of Longest Hydrocarbon Alkane to Dissolve,"[14]; 80 weight % ether, 20 % t-DCE",19
same,Largest Carbon Number of Longest Hydrocarbon Alkane to Dissolve,"[14]; 100 weight % ether, 0 % n-butyl bromide",18
same,Largest Carbon Number of Longest Hydrocarbon Alkane to Dissolve,"[14]; 100 weight % ether, 0 % t-DCE",18
same,Stability in Presence of Acid: conversion to ester,[15],100%
same,Closed Cup Flash Point (ASTM D3278-96),[16]; [20],50 (7) ° F. (° C.)
same,Closed Cup Flash Point (ASTM D3278-96),[16]; [21],45 (10) ° F. (° C.)
same,Closed Cup Flash Point (ASTM D3278-96),[16]; [22],45 (7) ° F. (° C.)
same,Closed Cup Flash Point (ASTM D3278-96),[16]; [23],50 (10) ° F. (° C.)
same,Closed Cup Flash Point (ASTM D3278-96),"[16]; 100 weight % ether, 0 % n-butyl bromide, raised to 140° F. (60° C.)",45 (7) ° F. (° C.)
"FC(F)(Cl)C(F)(Cl)Cl [CF2ClCFCl2, reference compound]",percent oil removal,[3]; 23 ° C.,98.9%
same,percent oil removal,[3]; 50 ° C.,98.7%
